Where “and” joins values, the source holds several entries; their conditions need not be identical. Identical values can stand only once. Like-named read-outs stand apart in the source and are kept apart here. Values belong to the molecule of their own block, whether it stands above or below them.
Columns and labels:
[1] = system: MCF-7 breast cancer cells; test: MTT cell viability assay, MCF-7; assay type: cell-based, human
Method: (§1) All the human tumour cell lines MCF-7, HCT-116, HL-60 and HeLa were cultured in Dulbecco's Modified Eagle's Medium (DMEM) with 10% fetal bovine serum, 2 mM L-glutamine and 100 µg/mL penicillin/streptomycin. Cells were maintained at 37° C. in 5% CO2 in a humidified incubator. All cells were sub-cultured 3 times/week by trypsinization using TrypLE Express (1×).
(§2) The quinoline compounds were evaluated for antiproliferative effect using the MTT viability assay of four cancer cell lines (MCF-7, HCT-116, HL-60 and HeLa) and normal breast cells MCF-10A to calculate the relative IC50 values for each compound. Cells were seeded in triplicate in 96-well plates at a density of 10×10^3 cells/ml in a total volume of 200 μl per well. 0.1% of DMSO was used as a vehicle control. After this time, they were treated with 2 μl test compound which had been pre-prepared as stock solutions in ethanol to furnish the concentration range of study, 1 nM to 50 μM, and re-incubated for a further 72 h. The culture medium was then removed, and the cells washed with 100 μL phosphate buffered saline (PBS) and 50 μL MTT added, to reach a final concentration of 1 mg/mL MTT added. Cells were incubated for 2 h in darkness at 37° C. At this point solubilisation was begun through the addition of […] DMSO and the cells maintained at room temperature in darkness for 20 min to ensure thorough colour diffusion before reading the absorbance. Plates were incubated for 72 hours at 37° C.+5% CO2, The MTT (5 mg/mL in PBS) was added and incubated for another 4 h, the optical density was detected with a microplate reader at 570 nm. Results were expressed as percentage viability relative to vehicle control (100%). Dose response curves were plotted and IC50 values (concentration of drug resulting in 50% reduction in cell survival) were obtained using the commercial software package Prism (GraphPad Software, Inc., La Jolla, Calif., USA). All the experiments were repeated in at least three independent experiments.

[2] = system: caspase-9; test: Caspase-9 activation assay in MCF-7 cells; assay type: cell-based, human; conditions: MCF-7, 50 nM
Method: (§3) Bcl-2 content of MCF-7 cells was assessed by ELISA Kit purchased Zymed laboratories, invitrogen immunodetection according to the manufacturer's protocol, and the enzyme concentration was expressed as ng/mL [55]. ELISA Assay for BAX content of MCF-7 cells was assessed by ELISA kit purchased from Cloud-Clone Crop. (USA) according to the manufacturer's protocol, and the enzyme concentration was expressed as ng/mL [56]. In Vitro Caspase-9 Activation Assay was performed using human active caspase-9 Invitrogen EIA kit and the procedure of the used kit was done according to the manufacturer's instructions.

[3] = system: MCF-7 cells; test: Wound healing (cell migration) assay; assay type: cell-based, human; conditions: MCF-7, 24 h
Method: MCF-7 were grown in 6-well plates for 24 h, then the scratches were made using pipette tip and washed with PBS to remove non-adherent cell debris. Subsequently, the cells were treated with different concentrations of 8c for 24 h. The migrations across the wound area were photographed under a phase contrast microscopy.

[4] = system: MCF-7 cells; test: Colony formation assay; assay type: cell-based, human; conditions: MCF-7, 50 and 250 nM
Method: MCF-7 cells (600 cells per well) were seeded in 6-well plates and incubated for 24 h before being then treated with different doses of the compound 8c (50 and 250 nM) for 14 days. […]. Then the cells were washed with PBS twice and subsequently fixed with 4% paraformaldehyde and stained with 0.05% crystal violet for 30 min. Finally, cells were visualized using an inverted microscope.

[5] = system: pro-apoptotic protein Bax; test: BAX ELISA in MCF-7 cells; assay type: cell-based, human; conditions: MCF-7, 250 nM, 48 h
Method: as §3

[6] = system: MCF-7 cells; test: Annexin V/PI apoptotic assay; assay type: cell-based, human; conditions: MCF-7, 50 nM, 48 h; control 1%
Method: Apoptotic cell death was detected by flow cytometry using Annexin V and propidium iodide (PI). […] Cells were then harvested and prepared for flow cytometric analysis. Cells were washed in 1× binding buffer (20× binding buffer: 0.1M HEPES, pH 7.4; 1.4 M NaCl; 25 mM CaCl2) diluted in dH2O) and incubated in the dark for 30 minutes on ice in Annexin V-containing binding buffer [1:100]. Cells were then washed once in binding buffer and then re-suspended in […] binding buffer [1:1000]. Samples were analysed immediately using the BD accuri flow cytometer and prism software for analysis the data. Four populations are produced during the assay Annexin V and PI negative (Q4, healthy cells), Annexin V positive and PI negative (Q3, early apoptosis), Annexin V and PI positive (Q2, late apoptosis) and Annexin V negative and PI positive (Q1, necrosis).

[7] = system: tubulin (colchicine binding site); test: [3H]colchicine site competitive binding assay; conditions: inhibition of [3H]colchicine binding
Method: The affinity of compounds 8c to colchicine binding site was determined using Colchicine Site Competitive Assay kit CytoDYNAMIX Screen15 (Cytoskeleton, Inc., CO, USA) using the standard protocol of the manufacturer to determine Ki values (μM). Biotin-labelled tubulin ([…]) in 10 μL of reaction buffer was mixed with [3H]colchicine (0.08 μM, PerkinElmer, Waltham, Mass.) and the test compounds (positive control colchicine, negative control vinblastine, G-1, fluorescent G-1, or 2-ME) in a 96-well plate (final volume: 100 μL). After incubating for 2 h at 37° C. with gentle shaking, streptavidin-labelled yttrium SPA beads ([…] in 20 μL reaction buffer, PerkinElmer, Waltham, Mass.) were added to each well and incubated for 30 min at 4° C. The plates were then read on a scintillation counter (Packard Instrument, Topcount Microplate Reader) and the percentage of inhibition was calculated

[8] = system: bovine brain tubulin; test: Tubulin polymerization assay; assay type: biochemical; conditions: inhibition of tubulin polymerization; tubulin at 10 μM; read-out: Tubulin assembly IC50 ± SD
Method: The assembly of purified bovine tubulin was monitored using a kit, BK006, purchased from Cytoskeleton Inc., (Denver, Colo., USA). The assay was carried out in accordance with the manufacturer's instructions using the standard assay conditions. […] Light is scattered proportionally to the concentration of polymerized microtubules in the assay. Therefore, tubulin assembly was monitored turbidimetrically at 340 nm in a Spectramax 340 PC spectrophotometer (Molecular Devices, Sunnyvale, Calif., USA). The concentration that inhibits tubulin polymerization by 50% (IC50) was determined using area under the curve (AUC). The AUC of the untreated controls were considered as 100% polymerization. The IC50 value for each compound was computed using GraphPad Prism Software.

[9] = system: HCT-116 colon cancer cells; test: MTT cell viability assay, HCT-116; assay type: cell-based, human; conditions: HCT-116, MTT
Method: as §1, §2

[10] = system: anti-apoptotic protein Bcl-2; test: Bcl-2 ELISA in MCF-7 cells; assay type: cell-based, human; conditions: MCF-7, 250 nM, 48 h
Method: as §3

[11] = system: HeLa cervical cancer cells; test: MTT cell viability assay, HeLa; assay type: cell-based, human
Method: as §1, §2

[12] = system: HL-60 leukemia cells; test: MTT cell viability assay, HL-60; assay type: cell-based, human
Method: as §1, §2

[13] = system: MCF-7 cells; test: Cell cycle analysis by PI flow cytometry; assay type: cell-based, human; conditions: MCF-7, 50 nM
Method: MCF-7 cells were seeded at a density of 1×10^5 cells/well in 6-well plates and treated with CA-4 (50 nM) and compound 8c (50 and 250 nM) for 24, 48 and 72 hr. The cells were collected by trypsinization and centrifuged at 800×g for 15 min. Cells were washed twice with ice-cold PBS and fixed in ice-cold 70% ethanol overnight at −20° C. Fixed cells were centrifuged at 800×g for 15 min and stained with 50 μg/mL of PI, containing 50 μg/mL of DNase-free RNase A, at 37° C. for 30 min. The DNA content of cells (10,000 cells/experimental group) was analysed by flow cytometer at 488 nm using a FACSCalibur flow cytometer (BD Biosciences, San Jose, Calif.) and all data were recorded and analyzed using the CellQuest Software (Becton-Dickinson).

[14] = system: MCF-7 cells; test: ROS production by H2-DCFDA; assay type: cell-based, human; conditions: MCF-7, 50 nM, 24 h; untreated 1.0%
Method: Mitochondrial membrane potential (Δψmt) was measured by flow cytometry with DiOC2(3) staining and additional labelling with an annexin V conjugate. After treatment with compound 8c (50 and 250 nM) and CA-4 (50 nM), cells were stained with DiOC2(3) dye for 30 min in the incubator then harvested and washed with PBS. DiOC2(3)-stained cells were resuspended with 1× annexin binding buffer then added annexin V conjugate and incubated at 37° C. for 15 min. Then the data obtained from flow cytometry were analyzed by Cell Quest software. Production of intracellular Reactive oxygen species (ROS) was measured using 2,7-dichlorofluorescin diacetate (H2-DCFDA) dye. MCF-7 cells were seeded and treated either with vehicle (0.1% DMSO) or with compound 8c (50 and 250 nM) and CA-4 (50 nM) for different time 6, 12 and 24 h. H2O2 was used as a positive control. The amount of ROS generated was estimated after 2 h of selected compound treatment. The cells were collected by centrifugation and washed twice with PBS. Cells were then incubated with DCFDA dye (25 μM) in dark at 37° C. for 1 h. Fluorescence spectra (510-600 nm) were monitored using an excitation wavelength of 488 nm

[15] = system: MCF-10A normal epithelial breast cells; test: MTT cell viability assay, normal breast cells; assay type: cell-based, human; conditions: 72 h
Method: as §2, with “Dose response curves were plotted and IC50 values (concentration of drug resulting in 50% reduction in cell survival) were obtained using the commercial software package Prism (GraphPad Software, Inc., La Jolla, Calif., USA). All the experiments were repeated in at least three independent experiments.” left out

- IC50 ([1]; Homo sapiens, MCF7, MCF-7, MTT, read-out: IC50 in MCF-7): 0.0107 µM
- IC50 ([1]; MCF-7, MTT, read-out: IC50 in MCF-7): 0.0191 µM
- Colchicine binding % ± SD, 1 μM drug [7]: 79% and 79 ± 2%
- Colchicine binding % ± SD, 5 μM drug [7]: 87% and 87 ± 1%
- IC50 [8]: 1200 nM and 1210 nM
- IC50 ([9]; Homo sapiens, read-out: IC50 in HCT-116): 0.0225 µM
- IC50 ([11]; Homo sapiens, read-out: IC50 in HeLa): 0.0427 µM
- IC50 ([12]; HL-60, MTT, read-out: IC50 in HL-60): 0.0107 µM
- IC50 ([12]; Homo sapiens, HL-60, HL-60, MTT, read-out: IC50 in HL-60): 0.0191 µM
SMILES: COc1cc(C2=NC(=Cc3cc4ccc(C)cc4nc3OC)C(=O)O2)cc(OC)c1OC [Compound 8c, 4-[(2-Methoxy-7-methylquinolin-3-yl)methylene]-2-(3,4,5-trimethoxyphenyl)oxazol-5(4H)-one]
- fold increase in caspase-9 expression [2]: about 6 fold
- inhibition of cell migration (wound healing) [3]: migration inhibition in a dose dependent manner
- inhibition of colony formation [4]: inhibited the colony formation in a dose dependent manner
- expression of pro-apoptotic protein Bax [5]: up-regulation in the expression
- Annexin V-staining positive cells (total apoptotic cells) [6]: 15%
- expression level of anti-apoptotic protein Bcl-2 [10]: decrease in the expression level

SMILES: COc1ccc(/C=C\c2cc(OC)c(OC)c(OC)c2)cc1O [CA-4, Combretastatin A-4, reference compound]
- IC50 ([1]; MCF-7, MTT, 72 h, read-out: IC50 value (μM) MCF-7): 0.019 ± 0.004 µM
- percentage of cells in G2/M phase ([13]; 24 h): 40.3%
- population in the sub-G1 phase (apoptosis) ([13]; 24 h): 23.5%
- population in the sub-G1 phase (apoptosis) ([13]; 48 h): 31.1%
- percentage of cells in G2/M phase ([13]; 48 h, control 9.2%): 43.8%
- percentage of cells in G2/M phase ([13]; 72 h): 47.7%
- population in the sub-G1 phase (apoptosis) ([13]; 72 h): 37.4%
- Annexin V-staining positive cells (total apoptotic cells) [6]: 29%
- ROS generation [14]: 18.3%
- Colchicine binding % ± SD, 1 μM drug [7]: 86% and 86 ± 0.9%
- Colchicine binding % ± SD, 5 μM drug [7]: 97% and 97 ± 2%
- IC50 [15]: 6100 nM
- IC50 ([9]; 72 h, read-out: IC50 value (μM) HCT-116): 0.026 ± 0.001 µM
- IC50 ([11]; 72 h, read-out: IC50 value (μM) HeLa): 0.064 ± 0.004 µM
- IC50 ([12]; HL-60, MTT, 72 h, mean ± spread of three experiments, read-out: IC50 value (μM) HL-60): 0.076 ± 0.004 µM
